# Results from PubChem BioAssay AID330 (DTP/NCI, 2004).
# Values joined by “and” are separate entries in the source; they are usually repeats but may differ in a detail not shown here. Equal entries are not always repeated. Inconclusive results and toxic doses are left out.
# Tested on: P388 leukemia ip, CD2F1 mice, survival T/C
# Experiment: NCI In Vivo Anticancer Drug Screen. Data for tumor model P388 Leukemia (intraperitoneal) in CD2F1 (CDF1) mice
# Details: endpoint: median survival time, higher = longer survival
# Summary of the method: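 Mice carrying the transplanted tumor received test compound or vehicle. Survival was recorded in each group, and the value is the treated-group measurement divided by that of the vehicle-treated control group.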
# [1] = dose: 50.0 mg/kg/injection, schedule: Q01DX009 (ip), vehicle: saline with Tween-80
# [2] = dose: 60.0 mg/kg/injection, schedule: Q01DX005 (ip), vehicle: saline with Tween-80
# [3] = dose: 120.0 mg/kg/injection, schedule: Q01DX005 (ip), vehicle: saline with Tween-80
# [4] = dose: 240.0 mg/kg/injection, schedule: Q01DX005 (ip), vehicle: saline with Tween-80
# [5] = dose: 50.0 mg/kg/injection, schedule: Q01DX005 (ip), vehicle: saline with Tween-80
# [6] = dose: 100.0 mg/kg/injection, schedule: Q01DX005 (ip), vehicle: saline with Tween-80
# [7] = dose: 200.0 mg/kg/injection, schedule: Q01DX005 (ip), vehicle: saline with Tween-80
compound,measurement,setting,value
CC(=O)OC1C(C)OC(OC(=O)C2CCC3C(C2)OC2(CC(OC(=O)/C=C/c4ccccc4)C(C)CO2)C32CO2)C(OC2OC(C)C(O)C(OC(C)=O)C2O)C1O (configuration not stated),T/C,"dose: 0.62 mg/kg/injection, schedule: Q01DX009 (ip), vehicle: saline + alcohol",97 % of control
same,T/C,"dose: 0.75 mg/kg/injection, schedule: Q01DX005 (ip), vehicle: saline + alcohol",97 % of control
same,T/C,"dose: 1.25 mg/kg/injection, schedule: Q01DX009 (ip), vehicle: saline + alcohol",105 % of control
same,T/C,"dose: 1.5 mg/kg/injection, schedule: Q01DX005 (ip), vehicle: saline + alcohol",106 % of control
same,T/C,"dose: 1.67 mg/kg/injection, schedule: Q01DX009 (ip), vehicle: saline + alcohol",113 % of control
same,T/C,"dose: 1.75 mg/kg/injection, schedule: Q01DX009 (ip), vehicle: saline + alcohol",104 % of control
same,T/C,"dose: 2.5 mg/kg/injection, schedule: Q01DX009 (ip), vehicle: saline + alcohol",105 % of control
same,T/C,"dose: 3.0 mg/kg/injection, schedule: Q01DX005 (ip), vehicle: saline + alcohol",114 % of control
same,T/C,"dose: 3.5 mg/kg/injection, schedule: Q01DX009 (ip), vehicle: saline + alcohol",108 % of control
same,T/C,"dose: 5.0 mg/kg/injection, schedule: Q01DX009 (ip), vehicle: saline + alcohol",106 % of control
same,T/C,"dose: 6.0 mg/kg/injection, schedule: Q01DX005 (ip), vehicle: saline + alcohol",115 % of control
same,T/C,"dose: 6.68 mg/kg/injection, schedule: Q01DX009 (ip), vehicle: saline + alcohol",152 % of control
same,T/C,"dose: 7.0 mg/kg/injection, schedule: Q01DX009 (ip), vehicle: saline + alcohol",110 % of control
same,T/C,"dose: 13.35 mg/kg/injection, schedule: Q01DX009 (ip), vehicle: saline + alcohol",111 % of control
same,T/C,"dose: 14.0 mg/kg/injection, schedule: Q01DX009 (ip), vehicle: saline + alcohol",118 % of control
O=[N+]([O-])c1cc2ccccc2c(O)c1O,T/C,"dose: 12.5 mg/kg/injection, schedule: Q01DX009 (ip), vehicle: saline with Tween-80",95 % of control
same,T/C,"dose: 25.0 mg/kg/injection, schedule: Q01DX009 (ip), vehicle: saline with Tween-80",104 % of control
same,T/C,[1],118 % of control
NC(=O)c1ccc2c3c(ccc(C(N)=O)c13)CC2,T/C,"dose: 60.0 mg/kg/injection, schedule: Q01DX005 (ip), vehicle: Klucel (hydroxypropylcellulose) (HPC)",102 % of control
same,T/C,"dose: 120.0 mg/kg/injection, schedule: Q01DX005 (ip), vehicle: Klucel (hydroxypropylcellulose) (HPC)",109 % of control
same,T/C,"dose: 240.0 mg/kg/injection, schedule: Q01DX005 (ip), vehicle: Klucel (hydroxypropylcellulose) (HPC)",109 % of control
O=C(CBr)C(=O)OCc1ccccc1,T/C,"dose: 0.78 mg/kg/injection, schedule: Q01DX009 (ip), vehicle: water",100 % of control
same,T/C,"dose: 1.56 mg/kg/injection, schedule: Q01DX009 (ip), vehicle: water",99 % of control
same,T/C,"dose: 3.13 mg/kg/injection, schedule: Q01DX009 (ip), vehicle: water",94 % of control
same,T/C,"dose: 6.25 mg/kg/injection, schedule: Q01DX009 (ip), vehicle: water",102 % of control
CS(C)=Nc1ccc([N+](=O)[O-])cc1,T/C,"dose: 100.0 mg/kg/injection, schedule: Q01DX001 (ip), vehicle: Klucel (hydroxypropylcellulose) (HPC)",109 % of control
same,T/C,"dose: 200.0 mg/kg/injection, schedule: Q01DX001 (ip), vehicle: Klucel (hydroxypropylcellulose) (HPC)",100 % of control
[Se]=P(N1CC1)(N1CC1)N1CC1,T/C,"dose: 13.75 mg/kg/injection, schedule: Q01DX001 (ip), vehicle: Klucel (hydroxypropylcellulose) (HPC)",119 % of control
same,T/C,"dose: 27.5 mg/kg/injection, schedule: Q01DX001 (ip), vehicle: Klucel (hydroxypropylcellulose) (HPC)",155 % of control
COC(=O)C1CC(I)C2OC(=O)C1C2C(=O)OC (configuration not stated),T/C,[2],91 % of control
same,T/C,[3],99 % of control
same,T/C,[4],97 % of control
CCC(CC)C(=O)NCC(=O)NO,T/C,"dose: 25.0 mg/kg/injection, schedule: Q01DX005 (ip), vehicle: saline with Tween-80",100 % of control
same,T/C,[5],103 % of control
same,T/C,[6],100 % of control
same,T/C,[7],95 % of control
Cc1ccc(S(=O)(=O)OCCN2CC2)cc1,T/C,[1],94 % of control
same,T/C,"dose: 100.0 mg/kg/injection, schedule: Q01DX009 (ip), vehicle: saline with Tween-80",89 % of control
same,T/C,"dose: 200.0 mg/kg/injection, schedule: Q01DX009 (ip), vehicle: saline with Tween-80",99 % of control
O=C1NC(=O)C2=C1NCCN2,T/C,"dose: 100.0 mg/kg/injection, schedule: Q04DX003 (ip), vehicle: saline",107 % of control
same,T/C,"dose: 200.0 mg/kg/injection, schedule: Q04DX003 (ip), vehicle: saline",104 % of control
same,T/C,"dose: 400.0 mg/kg/injection, schedule: Q04DX003 (ip), vehicle: saline",99 % of control
COc1cccc2c1C(=O)c1c(O)c3c(c(O)c1C2=O)C[C@@](O)(/C(CO)=N/NC(=O)c1ccccc1)C[C@@H]3OC1CC(N)C(O)C(C)O1 (some centres not stated),T/C,"dose: 0.12 mg/kg/injection, schedule: Q01DX009 (ip), vehicle: water",103 % of control
same,T/C,"dose: 0.25 mg/kg/injection, schedule: Q01DX009 (ip), vehicle: water",99 % of control
same,T/C,"dose: 0.5 mg/kg/injection, schedule: Q01DX009 (ip), vehicle: water",150 % of control
same,T/C,"dose: 0.8 mg/kg/injection, schedule: Q01DX009 (ip), vehicle: saline",112 % of control
same,T/C,"dose: 1.0 mg/kg/injection, schedule: Q01DX009 (ip), vehicle: water",154 % of control and 169 % of control
same,T/C,"dose: 1.4 mg/kg/injection, schedule: Q01DX009 (ip), vehicle: saline",112 % of control
same,T/C,"dose: 2.0 mg/kg/injection, schedule: Q01DX009 (ip), vehicle: water",154 % of control and 171 % of control and 190 % of control
same,T/C,"dose: 2.3 mg/kg/injection, schedule: Q01DX009 (ip), vehicle: saline",113 % of control
same,T/C,"dose: 3.9 mg/kg/injection, schedule: Q01DX009 (ip), vehicle: saline",118 % of control
same,T/C,"dose: 4.0 mg/kg/injection, schedule: Q01DX009 (ip), vehicle: water",172 % of control and 180 % of control and 212 % of control
same,T/C,"dose: 6.0 mg/kg/injection, schedule: Q04DX003 (ip), vehicle: water",96 % of control
same,T/C,"dose: 8.0 mg/kg/injection, schedule: Q01DX009 (ip), vehicle: water",201 % of control and 230 % of control and 390 % of control
same,T/C,"dose: 8.6 mg/kg/injection, schedule: Q01DX009 (ip), vehicle: saline",163 % of control
same,T/C,"dose: 10.8 mg/kg/injection, schedule: Q01DX009 (ip), vehicle: saline",187 % of control
same,T/C,"dose: 18.0 mg/kg/injection, schedule: Q01DX009 (ip), vehicle: saline",90 % of control
same,T/C,"dose: 96.0 mg/kg/injection, schedule: Q04DX003 (ip), vehicle: water",114 % of control
CCC(C)C(N)C(=O)NC(CC(N)=O)C(=O)NC(CC(C)C)C(=O)NC(CCCCN)C(=O)NC(C)C(=O)NC(CC(C)C)C(=O)NC(C)C(=O)NC(C)C(=O)NC(CC(C)C)C(=O)NC(C)C(=O)NC(CCCCN)C(=O)NC(CCCCN)C(=O)NC(C(=O)NC(CC(C)C)C(N)=O)C(C)CC (configuration not stated),T/C,"dose: 1.56 mg/kg/injection, schedule: Q01DX005 (ip), vehicle: Klucel (hydroxypropylcellulose) (HPC)",102 % of control
same,T/C,"dose: 3.12 mg/kg/injection, schedule: Q01DX005 (ip), vehicle: Klucel (hydroxypropylcellulose) (HPC)",100 % of control
same,T/C,"dose: 6.25 mg/kg/injection, schedule: Q01DX005 (ip), vehicle: Klucel (hydroxypropylcellulose) (HPC)",95 % of control
same,T/C,"dose: 12.5 mg/kg/injection, schedule: Q01DX005 (ip), vehicle: Klucel (hydroxypropylcellulose) (HPC)",94 % of control and 96 % of control
COC(=O)C1(CC(=O)c2cccc([N+](=O)[O-])c2)NC(=S)NC(=O)C1C#N (configuration not stated),T/C,"dose: 60.0 mg/kg/injection, schedule: Q01DX005 (ip), vehicle: suspension in saline",100 % of control
same,T/C,"dose: 120.0 mg/kg/injection, schedule: Q01DX005 (ip), vehicle: suspension in saline",90 % of control
same,T/C,"dose: 240.0 mg/kg/injection, schedule: Q01DX005 (ip), vehicle: suspension in saline",90 % of control
COCCn1nc(-c2ccc(Cl)cc2)c(-c2ccc(Cl)cc2)c(C(C)=O)c1=O,T/C,[5],100 % of control
same,T/C,[6],100 % of control
same,T/C,[7],93 % of control
CCOC(=O)C(C#N)C(=N)C1C(=O)OC2CCCCC21 (configuration not stated),T/C,[2],98 % of control
same,T/C,[3],100 % of control
same,T/C,[4],92 % of control
O=C(NCc1ccncc1)Nc1ccc(Cc2ccc(NC(=O)NCc3ccncc3)cc2)cc1,T/C,"dose: 50.0 mg/kg/injection, schedule: Q01DX009 (ip), vehicle: Klucel (hydroxypropylcellulose) (HPC)",105 % of control
same,T/C,"dose: 100.0 mg/kg/injection, schedule: Q01DX009 (ip), vehicle: Klucel (hydroxypropylcellulose) (HPC)",102 % of control
same,T/C,"dose: 200.0 mg/kg/injection, schedule: Q01DX009 (ip), vehicle: Klucel (hydroxypropylcellulose) (HPC)",103 % of control
C=CCOC(=O)OCCO,T/C,"dose: 60.0 mg/kg/injection, schedule: Q01DX005 (ip), vehicle: saline",101 % of control
same,T/C,"dose: 120.0 mg/kg/injection, schedule: Q01DX005 (ip), vehicle: saline",108 % of control
same,T/C,"dose: 240.0 mg/kg/injection, schedule: Q01DX005 (ip), vehicle: saline",99 % of control
